In patent publication US8293781B2, “Indole derivatives having cPLA2 inhibiting activity and applications and production methods of the same” (Daiichi Sankyo Company, Limited, priority 2007, dated 2012):
Counter-ions that a name gives are not always drawn.

Legend:
[1] = target: T1, cPLA2 crudely purified from the cytoplasm fraction of U937 (Homo sapiens, UniProt P47712); assay: Measurement of cPLA2 inhibitory activity (release of [14C]-arachidonic acid from phosphatidyl choline liposome); type: biochemical; settings: cPLA2 from U937 cytoplasm fraction, [14C]arachidonyl-phosphatidyl choline liposome, 37° C., 60 minutes; read-out: cPLA2 inhibitory activity, 50% inhibiting concentration IC50
T1 construct: cPLA2 crudely purified from the cytoplasm fraction of U937; endogenous in cells; host or cells: U937 cells (cytoplasm fraction, crude purification)
T1 sequence (P47712 1-749): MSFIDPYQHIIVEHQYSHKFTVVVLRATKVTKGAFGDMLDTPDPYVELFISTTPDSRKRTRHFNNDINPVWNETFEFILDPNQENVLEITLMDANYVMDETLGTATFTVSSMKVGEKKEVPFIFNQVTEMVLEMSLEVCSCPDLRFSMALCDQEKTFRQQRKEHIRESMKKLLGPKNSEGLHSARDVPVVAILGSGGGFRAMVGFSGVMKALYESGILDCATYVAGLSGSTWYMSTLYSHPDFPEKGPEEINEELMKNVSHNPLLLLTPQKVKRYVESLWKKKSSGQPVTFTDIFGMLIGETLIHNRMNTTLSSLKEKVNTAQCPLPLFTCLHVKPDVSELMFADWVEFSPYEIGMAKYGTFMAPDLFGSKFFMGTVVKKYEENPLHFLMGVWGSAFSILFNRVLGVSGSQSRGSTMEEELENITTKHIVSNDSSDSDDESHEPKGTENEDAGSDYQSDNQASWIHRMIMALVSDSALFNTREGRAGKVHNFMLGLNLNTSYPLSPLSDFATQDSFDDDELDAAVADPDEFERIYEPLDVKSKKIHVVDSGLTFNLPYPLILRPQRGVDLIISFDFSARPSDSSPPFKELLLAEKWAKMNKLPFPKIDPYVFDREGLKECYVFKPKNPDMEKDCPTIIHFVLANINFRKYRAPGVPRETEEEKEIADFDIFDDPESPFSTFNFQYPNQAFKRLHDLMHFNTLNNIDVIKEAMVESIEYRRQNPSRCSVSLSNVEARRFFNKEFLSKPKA
In short: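 The read-out is radioactivity from extracted [14C]-arachidonic acid, freed over 60 min at 37° C from liposomes of 14C-arachidonyl phosphatidylcholine (10 μM PC in the added solution). Buffer was 50 mM HEPES pH 7.5 with Ca2+, DTT, NaCl and BSA. IC50 was derived from inhibition relative to enzyme control minus no-enzyme control.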

[2] = system: PGD2 production in rat mast cell like cell line RBL-2H3; assay: Antigen-induced PGD2 production system using RBL-2H3 sensitized by DNP specific IgE; type: cell-based; settings: 0.5 h, RBL-2H3, anti-DNP-IgE sensitized, antigen 10 μg/ml, 30 minutes
Description: To evaluate the PGD2 production inhibiting activity, the antigen-induced PGD2 production system using rat mast cell like cell line RBL-2H3 sensitized by a dinitrophenol (DNP) specific IgE with reference to the method of Yamashita et al. (see Yamashita, M. et al., Br J Pharmacol 129: 367, 2000) was used. That is, rat mast cell like cell line RBL-2H3 cells were suspended in a Dulbecco's modified Eagle's medium (Nacalai Tesque) containing 10% bovine fetal serum (BioWhittaker) and 10 μg/ml gentamycin (Invitrogen). The infiltrating cell suspension 200 μl containing 1×10^5 cells per well was inoculated to 96-well culture plate and cultured over night under conditions of 5% CO2 and 37° C. The culture supernatant was removed, then the suspension was cultured for 2 hours in the presence of an anti-DNP-IgE antibody (1 μg/ml) for 2 hours to sensitize it. After the sensitization, the supernatant was removed and the test compound solution or solvent was added. The resultant product was precultured for 30 minutes, then 10 μg/ml of antigen (DNP-human serum albumin conjugate) was added to elicite PGD2 production.
30 minutes after antigen stimulus, the culture supernatant was recovered and the amount of PGD2 in the supernatant was measured using an EIA kit (made by Cayman). Based on the measurement value, the test compound concentration (IC50 value) suppressing the amount of PGD2 production at the time of nonaddition of the compound by 50% was calculated.

[3] = system: LTB4 production in rat mast cell like cell line RBL-2H3; assay: Calcium ionophore-induced LTB4 production system using RBL-2H3; type: cell-based; settings: 1 h, RBL-2H3, A23187 5 μM, one hour
Description: For the evaluation by LTB4 and Cys-LTs production inhibiting activity, the calcium ionophore-induced LTB4 and Cys-LTs production system using the rat mast cell like cell line RBL-2H3 with reference to the method of Ishiwara et al. (see Ishiwara M. et al., J Pharmacol Exp Ther 307: 583, 2003) was used. That is, rat mast cell like cell line RBL-2H3 cells were suspended in Dulbecco's modified Eagle's medium (Nacalai Tesque) containing 10% bovine fetal serum (BioWhittaker) and 10 μg/ml gentamycin (Invitrogen). The infiltrating cell suspension 200 μl containing 1×10^5 cells per well was inoculated to 96-well culture plate and cultured over night under conditions of 5% CO2 and 37° C. The culture supernatant was removed, then the test compound solution or solvent 50 μl was added. After 30 minutes preculture, calcium ionophore (A23187) was added to a final concentration of 5 μM to induce leukotriene production.
One hour after calcium ionophore stimulus, the culture supernatant was recovered and the amounts of LTB4 and Cys-LTs in the supernatant were measured using an EIA kit (made by Amersham). Based on the measurement values, the test compound concentrations suppressing 50% of the mediator production at the time of non-addition of a compound (IC50 value) were calculated.

In the case of `O=C(O)CCc1ccc2c(c1)c(CCc1ccccc1)cn2-c1ccc(O)cc1` [Example 126, 3-[1-(4-hydroxyphenyl)-3-(2-phenylethyl)-1H-indol-5-yl]propanoic acid], the IC50 [1] is reported as 0.011 µM, the IC50 [2] is reported as 1.21 µM and the IC50 [3] is reported as 0.77 µM.

Work on `O=C(O)CCc1ccc2c(c1)c(CCc1ccccc1)cn2-c1ccc(F)cc1` [Example 187, 3-[1-(4-fluorophenyl)-3-(2-phenylethyl)-1H-indol-5-yl]propanoic acid] yielded an IC50 [1] of 0.058 µM, an IC50 [2] of 0.43 µM and an IC50 [3] of 0.26 µM.

Compound `O=C(O)CCc1ccc2c(c1)c(CCc1ccccc1)cn2-c1ccc(OC(F)F)cc1` [Example 190, 3-{1-[4-(difluoromethoxy)phenyl]-3-(2-phenylethyl)-1H-indol-5-yl}propanoic acid 2-amino-2-(hydroxymethyl)propane-1,3-diol salt (1:1)] has an IC50 [1] of 0.028 µM, an IC50 [2] of 1.11 µM and an IC50 [3] of 0.38 µM.

`COCc1ccc(-n2cc(CCc3ccccc3)c3cc(CCC(=O)O)ccc32)cc1` [Example 217, 3-{1-[4-(methoxymethyl)phenyl]-3-(2-phenylethyl)-1H-indol-5-yl}propanoic acid 2-amino-2-(hydroxymethyl)propane-1,3-diol salt (1:1)] gave an IC50 [1] of 0.047 µM, an IC50 [2] of 1.12 µM and an IC50 [3] of 0.5 µM.

Work on `O=C(O)CCc1ccc2c(c1)c(CCc1ccccc1)cn2-c1ccc(OCCO)cc1` [Example 229, 3-{1-[4-(2-hydroxyethoxy)phenyl]-3-(2-phenylethyl)-1H-indol-5-yl}propanoic acid 2-amino-2-(hydroxymethyl)propane-1,3-diol salt (1:1)] yielded an IC50 [1] of 0.014 µM, an IC50 [2] of 0.89 µM and an IC50 [3] of 0.02 µM.

Work on `O=C(O)CCc1ccc2c(c1)c(CCc1ccccc1)cn2-c1ccc(Oc2ccccc2)cc1` [Example 231, 3-[1-(4-phenoxyphenyl)-3-(2-phenylethyl)-1H-indol-5-yl]propanoic acid 2-amino-2-(hydroxymethyl)propane-1,3-diol salt (1:1)] yielded an IC50 [1] of 0.02 µM, an IC50 [2] of 0.76 µM and an IC50 [3] of 0.18 µM.
